ChEMBL document CHEMBL1201862, “PubChem BioAssay data set” (2004)
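Results reflect a 48-hour exposure of cells in 96-well plates to compound at five concentrations. At the GI50, growth is halved.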 Active and inactive are the calls of the source. Rule as the data show it: active = GI50 up to about 1.1 µM and inactive = higher.

Assays:
Experiment in all cases: DTP human tumour cell line panel, 48 h
ACHN = test system: ACHN
HCT-15 = test system: HCT-15
OVCAR-8 = test system: OVCAR-8
NCI-H226 = test system: NCI-H226
OVCAR-3 = test system: OVCAR-3
CCRF-CEM = test system: CCRF-CEM
COLO 205 = test system: COLO 205
SF-539 = test system: SF-539
SF-268 = test system: SF-268
M14 = test system: M14
MCF7 = test system: MCF7
NCI-H522 = test system: NCI-H522
RXF 393 = test system: RXF 393
SNB-19 = test system: SNB-19
SK-MEL-5 = test system: SK-MEL-5
K562 = test system: K562
BT-549 = test system: BT-549
SR = test system: SR
T47D = test system: T47D
KM12 = test system: KM12
SNB-75 = test system: SNB-75
DU-145 = test system: DU-145
IGROV-1 = test system: IGROV-1
SW-620 = test system: SW-620
TK-10 = test system: TK-10
EKVX = test system: EKVX
MDA-MB-435 = test system: MDA-MB-435
HCC 2998 = test system: HCC 2998
Hs-578T = test system: Hs-578T
Malme-3M = test system: Malme-3M
MDA-N = test system: MDA-N
NCI-H23 = test system: NCI-H23
HCT-116 = test system: HCT-116
A549 = test system: A549
SF-295 = test system: SF-295
PC-3 = test system: PC-3
UACC-62 = test system: UACC-62
HOP-92 = test system: HOP-92
UO-31 = test system: UO-31
MOLT-4 = test system: MOLT-4
HT-29 = test system: HT-29
UACC-257 = test system: UACC-257
MDA-MB-231 = test system: MDA-MB-231
NCI/ADR-RES = test system: NCI/ADR-RES
CAKI-1 = test system: CAKI-1
OVCAR-4 = test system: OVCAR-4
786-0 = test system: 786-0
U-251 = test system: U-251
SN12C = test system: SN12C
SK-OV-3 = test system: SK-OV-3
SK-MEL-28 = test system: SK-MEL-28
NCI-H460 = test system: NCI-H460
HOP-62 = test system: HOP-62
OVCAR-5 = test system: OVCAR-5
A498 = test system: A498
HL-60 = test system: HL-60
RPMI-8226 = test system: RPMI-8226
LOX IMVI = test system: LOX IMVI
SK-MEL-2 = test system: SK-MEL-2

Measured: GI50

CC(=O)Oc1ccc2c(c1)[nH]c1c3ccc(OC(C)=O)cc3oc(=O)c21
37 µM: HCT-15
inactive: ACHN 27 µM | OVCAR-8 35.4 µM | NCI-H226 21.8 µM | OVCAR-3 24.8 µM | CCRF-CEM 19.3 µM | COLO 205 30.7 µM | SF-539 29.9 µM | SF-268 26.9 µM | M14 30.5 µM | MCF7 24.9 µM | NCI-H522 25.5 µM | RXF 393 26.7 µM | SNB-19 23.9 µM | SK-MEL-5 15.3 µM | K562 26.5 µM | BT-549 23.9 µM | SR 22.8 µM | T47D 20.4 µM | KM12 29.1 µM | SNB-75 51.6 µM | DU-145 33.3 µM | IGROV-1 39 µM | SW-620 25 µM | TK-10 49.9 µM | EKVX 34.7 µM | MDA-MB-435 27.2 µM | HCC 2998 26.5 µM | Hs-578T 31.3 µM | Malme-3M 32.8 µM | MDA-N 33.3 µM | NCI-H23 36.1 µM | HCT-116 23.3 µM | A549 56.9 µM | SF-295 44.1 µM | PC-3 24.5 µM | UACC-62 28.1 µM | HOP-92 61.1 µM | UO-31 27.8 µM | MOLT-4 14.2 µM | HT-29 34.2 µM | UACC-257 43.2 µM | MDA-MB-231 29.2 µM | NCI/ADR-RES > 100 µM | CAKI-1 52.4 µM | OVCAR-4 42.4 µM | 786-0 48 µM | U-251 30.5 µM | SN12C 30.5 µM | SK-OV-3 26 µM | SK-MEL-28 38 µM | NCI-H460 22.6 µM | HOP-62 29.3 µM | OVCAR-5 > 100 µM

CC[C@H](C)[C@H](NC(=O)[C@@]1(O)[C@H](O)[C@]2(CC)C=CCN3CC[C@@]4(c5cc(Br)c(OC)cc5N(C)[C@@H]14)[C@@H]32)C(=O)OC
inactive: ACHN 24.8 µM | A498 25.3 µM | OVCAR-8 39.4 µM | HL-60 37.8 µM | OVCAR-3 20.7 µM | CCRF-CEM 27.8 µM | COLO 205 14 µM | SF-539 27.5 µM | SF-268 27.7 µM | M14 22.1 µM | MCF7 35.6 µM | NCI-H522 27.5 µM | RXF 393 45.5 µM | SNB-19 64.3 µM | SK-MEL-5 24.4 µM | K562 67.1 µM | BT-549 88.5 µM | SR 27.2 µM | T47D 52.4 µM | RPMI-8226 14.2 µM | LOX IMVI 16.8 µM | KM12 27.2 µM | DU-145 > 100 µM | IGROV-1 26.3 µM | SW-620 29 µM | TK-10 38.3 µM | EKVX 40.2 µM | MDA-MB-435 20.5 µM | HCC 2998 23.8 µM | Hs-578T 23.2 µM | Malme-3M 21.9 µM | MDA-N 25.6 µM | NCI-H23 86.1 µM | HCT-116 25.5 µM | A549 20.5 µM | SF-295 33.8 µM | PC-3 76.7 µM | UACC-62 12.6 µM | UO-31 44.4 µM | MOLT-4 22.8 µM | HT-29 11.6 µM | UACC-257 24.9 µM | MDA-MB-231 15.7 µM | NCI/ADR-RES 57.8 µM | CAKI-1 22.5 µM | OVCAR-4 4.84 µM | 786-0 63.5 µM | SK-MEL-2 26.2 µM | U-251 27.8 µM | SN12C 27.2 µM | SK-OV-3 38 µM | SK-MEL-28 13.2 µM | NCI-H460 24.3 µM | HOP-62 32.2 µM | OVCAR-5 > 100 µM
25.7 µM: HCT-15
